Measurements from patent publication US20050203063A1, “Proteasome pathway inhibitors and related methods” (priority 2003, published 2005).
Entries after “also recorded” stand apart in the source; their conditions may differ.

What was measured:
[1] = tested on: Cdh1-stimulated cyc-luc proteolysis (APC/C); assay: cyc-luc turnover in interphase Xenopus extracts stimulated with recombinant Cdh1; assay type: biochemical; details: 200 μM compound; negative values reflect stimulation of proteolysis
Experimental: FIG. 1. Functional classification of inhibitors. Compounds that scored in the initial screen were reacquired as dry powders and retested in Xenopus extracts in 4 assays at 200 μM concentration (32) as described (6). […] (A) Compounds and cyclin-luciferase were added to interphase extracts, which were then induced to enter mitosis by addition of non-degradable cyclin B. Percent inhibition of cyc-luc turnover by each compound is coded according to the grayscale shown at the bottom of the figure; specific values are available in Table 1. (B) Extracts were pre-treated with non-degradable cyclin B to allow entry into mitosis prior to addition of test compound and reporter protein. (C) Interphase extracts were treated by addition of recombinant Cdh1 to activate cyc-luc turnover. (D) Interphase extracts were treated with recombinant axin to induce turnover of β-catenin-luciferase.
The “Cmpd” column corresponds to the numbers used in FIG. 1; “Class” refers to the class of inhibitor described in FIG. 1 and the text. Columns A-D show percent inhibition in the four assays described in FIG. 1. (A) Interphase extracts (B) Mitotic extracts (C) Interphase extracts stimulated with Cdh1 (D) Degradation of a β-catenin reporter protein in interphase extracts stimulated with recombinant axin. […] “ID#” refers to the identification number of the inhibitor obtained from the NCI (prefaced by NSC) or Chembridge (prefaced by C).
Dry compounds were redissolved at 20 mM concentration in DMSO, or a 50:50 water:DMSO mixture in certain cases. These compounds were then diluted ten-fold in XB and mixed thoroughly. For the assay in FIG. 1A, chilled interphase extract was mixed with cyclin BΔ90 (10 μg/ml) and cyc-luc (0.1 μg/ml) in bulk and then 27 μl of extract was pipetted to each well of a chilled 384-well plate. Three microliters of each compound (diluted in XB) was then added to each well, and then compounds mixed thoroughly. Plates were warmed to room temperature. After 70 minutes, 5 μl aliquots were transferred to another plate, and then 30 μl of luciferin reagent was added to each well and luminescence measured. Percent inhibition was calculated as described above. The reported values represent the average of three independent measurments. For the assay in FIG. 1B, interphase extracts were treated with 10 μg/cyclin B 90 for 50 minutes at room temperature and then chilled on ice. Cyc-luc was then added, and then 27 μl of extract was pipetted to each well of a chilled 384-well plate. Three microliters of each compound (diluted in XB) was then added to each well, and then compounds mixed thoroughly. Plates were warmed to room temperature. After 60 minutes, 5 μl aliquots were transferred to another plate, and then 30 μl of luciferin reagent was added to each well and luminescence measured. For the assay in FIG. 1C, recombinant Cdh1 (0.1 μg/ml) and cyc-luc were added to chilled interphase extracts. Extracts were then pipetted and compounds added as above. Plates were warmed to room temperature and incubated for three hours, following which luminescence was measured as above. For the assay in FIG. 1D, chilled interphase extracts received recombinant axin and beta-catenin-luciferase reporter as described (8). Extracts were aliquoted to chilled plates and compounds distributed as described above. Plates were warmed to room temperature, incubated for three hours, and luminescence measured.

[2] = tested on: 26S proteasomes; assay: Deubiquitination of UbSic1 by epoxomicin-treated purified 26S proteasomes; assay type: biochemical, S. cerevisiae; details: 100 μM test compound, 100 μM epoxomicin
Experimental: FIG. 2. […] (A) Degradation of UbSic1. Purified 26S proteasomes were preincubated in the presence or absence of test compounds. UbSic1 was then added, and degradation assayed as described (6). Py mock refers to the pyridine solvent in which C23 was dissolved which was marginally inhibitory, unlike the 50% DMSO vehicle used for other test compounds. (B) Deubiquitination of UbSic1. […] UbSic1 was then added, and deubiquitination was assayed as described (6). (C) Titration curve with varying concentrations of C92 to determine half-maximal inhibition of deubiquitination. (D) C92 inhibits binding of UbSic1 to 26S proteasomes. Purified 26S proteasomes immobilized on anti-Flag beads were incubated with UbSic1 in the presence or absence of C92 as described (6). Following binding, beads were washed and analyzed by immunoblotting with anti-Sic1 polyclonal serum. (E) Binding of UbSic1 to the polyUb binding proteins Rpn10 and Rad23 is inhibited by C92. Recombinant Gst-Rpn10 and Gst-Rad23 (1 μg each) were immobilized on glutathione sepharose beads and then incubated with UbSic1 in the presence or absence of C92. Following binding, beads were washed and analyzed by immunoblotting. (F) C92 interacts with multiUb chains. Equivalent amounts (5 μg) of purified Gst, Gst-fusion protein or multiUb chains were incubated with C92 or C1 before being loaded on a 5% native polyacryamide gel. Electrophoresis was performed as described (33). (G) C92 and C59 interact specifically with K48-linked Ub on native gels. Ub (16 μM), K48-linked diUb (8 μM), or tetraUb chains (8 μM) were preincubated with a two fold-molar excess (monoUb and diUb), or equivalent amounts (tetraUb) of test compounds before being resolved on native gels as in (G). Tetra K29Ub, K48Ub, and K63Ub refer to tetraubiquitin chains wherein the ubiquitins are linked via K29, K48, or K63.
FIG. 5. […] Assays were performed and evaluated as summarized in the legend to FIG. 2B. The metal chelating reagent phenanthroline is designated as “P”, and “Py” refers to the pyridine solvent that is used as the solvent for C23. (B) Titration curve for C59. (C) Inhibition of binding of ubiquitin conjugates to Gst-Rpn10 by C92 and C59, but not other compounds. The experiment was performed as described for FIG. 2E.
26S proteasomes were purified from S. cerevisiae cells expressing a Flag-tagged proteasomal subunit (PRE1) essentially as described (28).
Reactions were processed as above.

## CC(=O)Nc1ccc(SSc2ccc(NC(C)=O)c3cccnc23)c2ncccc12 [Compound 23]
[1]
  percent inhibition of cyc-luc turnover, (C) Interphase extracts stimulated with Cdh1: 100%
[2]; listed as C23
  inhibition of deubiquitination of UbSic1 (in words): marginal inhibition; also recorded: inhibited marginally

## O=S(=O)(O)c1ccc2cc3c(cc2c1)NN(c1ccc(/C=C/c2ccc(N4Nc5cc6ccc(S(=O)(=O)O)cc6cc5N4)cc2S(=O)(=O)O)c(S(=O)(=O)O)c1)N3 [Compound 59]
[1]
  percent inhibition of cyc-luc turnover, (C) Interphase extracts stimulated with Cdh1: 100%
[2]
  inhibition of deubiquitination of UbSic1 (in words): Complete inhibition

## O=C(Nc1ccc(/C=C/c2ccc(NC(=O)c3cc(S(=O)(=O)O)c4cccnc4c3O)cc2S(=O)(=O)O)c(S(=O)(=O)O)c1)c1cc(S(=O)(=O)O)c2cccnc2c1O [Compound 92]
[1]
  percent inhibition of cyc-luc turnover, (C) Interphase extracts stimulated with Cdh1: 65%
[2]
  inhibition of deubiquitination of UbSic1 (in words): completely blocked
